Consider 2 molecules from patent publication US9040580B2, “Method for prevention or treatment of degenerative neurologial brain disorders” (B[…]., LTD., priority 2010, dated 2015).

For data set [1] the following is noted: established by the World Heath Organization (WHO); cited from earlier work.
In data set [2] the test system is SH-SY5Y cells. Description: Cell protective activity against α-synuclein, WST-1. In kind it is cell-based, human. The following applies: for apoptosis caused by α-synuclein: 4 h pre-culture, then 2 μM α-synuclein 24 h, FIG. 6. As for the experimental part: (§1) In order to identify whether methylparaben (MP) in cultured cells has cell protective effects against active oxygen, excitatory brain neurotransmitter, and α-synuclein, a cell protective activity test was performed. These materials, that is, the active oxygen, excitatory brain neurotransmitter, and α-synuclein has been indicated as a cause of extensive damage of nerve cells with respect to Parkinson's disease and other degenerative cerebral disorders.
(§2) Each well of a 96-well plate was provided with SH-SY5Y cells (5×10^3 cells; 10% FBS added DMEM medium) derived from human nerve cancer and cultured at 37° C. for 24 hours. After this, 1, 10 and 100 ng/ml of methylparaben (MP), 50 μM Vitamin E (Vit E) or 10 μM MK-801 was added and further cultured for 4 hours. Alternatively, as a control group, a culture solution without the addition of a drug was prepared. After culturing for 4 hours, 300 mM hydrogen peroxide solution (H2O2) generating active oxygen, 2 mM glutamate as an excitatory brain neurotransmitter, and 2 μM α-synuclein were further added and cultured for 24 hours. After culturing, the cultured solution was washed using phosphate buffered saline (PBS). 100 μl cultured solution provided with a 10% cell proliferation reagent (WST-1) was poured into an incubator at 37° C. and reacted for 1 hour under […], and then, absorbance was measured at 450 nm.
In general terms: Formazan colour is commonly taken as a measure of viable cells.

Data set [3] has as its system Parkinson's disease model (6-OHDA) C57BL/6 mouse. Description: Observation of rotary movement (apomorphine-induced) in Parkinson's disease model. The conditions noted are these: FIG. 8.
For data set [4], the system named is SH-SY5Y cells. Put plainly: Cell protective activity against excitatory brain neurotransmitter (glutamate), WST-1. Type of data set: cell-based, human. The following applies: for apoptosis caused by excitatory brain neurotransmitter: 4 h pre-culture, then 2 mM glutamate 24 h, FIG. 5. As for the experimental part: as §1, §2
Data set [5] in a line: Hydroxyl radical removal ability test (Fenton reaction, DMPO spin trap, ESR). Type of data set: biochemical. As for the experimental part: In order to identify active oxygen removal ability of methylparaben (MP), Fenton reaction [H2O2+FeSO4] was performed to derive hydroxyl radicals. The derived hydroxyl radicals were entrapped by a nitrone spin trap (DMPO) and the entrapped DMPO-OH addition product was measured by an electron spin resonance (ESR) spectrometer. ESR spectrum was measured by reacting a reaction reagent [phosphate buffer solution (pH 7.4); 4.5 M DMPO 10 μl, 0.6 mM FeSO4 75 μl, 2.8 M H2O2 75 μl], methylparaben and vitamin C (VitC), then, using an ESR spectrometer (JES-FA, JEOL, Japan), and the measured results are shown in FIG. 2. In this regard, the ESR spectrometer carried out analysis using some parameters [magnetic field 340 mT, power 1.00 mW, frequency 9.19 GHz, amplitude modulation 0.2 mT, gain 200, scanning time 2 minutes, scanning width 10 mT, time constant 0.03 seconds, and temperature 20° C.].

The subject of data set [6] is Parkinson's disease model (6-OHDA) C57BL/6 mouse. Description: Y-shaped maze test in Parkinson's disease model. In kind it is in vivo. The following applies: FIG. 9. On the procedure: An Y-shaped maze measurement device has three extending arms to form an alphabet ‘Y’ shape wherein each arm has a length of 35 cm, height of 9 cm, and width of 5 cm, and all arms are formed at the same angle. After positioning a test animal to face an end of one of the arms of the Y-shaped maze, the animal was allowed to freely go around the arms for 8 minutes. Motions of the animal were recorded and, when the animal with hind legs moved inside the arm, the animal was deemed to pass the arm (‘arm entry’). Movement of the animal was represented by the number of crossings (‘alternation’) and one alternation is defined to be when the animal continuously passes three arms. A quantity of spontaneous crossing movement is a percentage ratio of a practical alternation and a maximum possible alternation (that is, a total alternation −2).

Data set [7] concerns SH-SY5Y cells. Put plainly: Cell protective activity against active oxygen (hydrogen peroxide), WST-1. In kind it is cell-based, human. The following applies: for apoptosis caused by active oxygen: 4 h pre-culture, then 300 mM H2O2 24 h, FIG. 4. As for the experimental part:
as §1, §2

Data set [8] relates to Parkinson's disease model (6-OHDA) C57BL/6 mouse. Description: Rotarod test in Parkinson's disease model. Type of data set: in vivo. The following applies: FIG. 7. As for the experimental part:
In order to identify whether methylparaben (MP) can improve movement dysfunction of the Parkinson's disease model, a rotarod test was performed and the test results were evaluated on day 14 after the surgery of Parkinson's disease. The rotarod test refers to a test of measuring a residence time when a mouse was riding on a rotarod without falling off. A rotation speed of the rotarod was set to 10 rpm and the rotarod test was performed over 10 minutes after an adaptation time of 5 minutes. A riding time on the rotarod was repeatedly measured three times and a mean value was calculated, then, a final value was represented in the form of the mean value±mean error (n=6).
(In general: Falling from the rotarod earlier than controls is read as motor impairment.)

For data set [9] the test system is unchanged. Description: Passive avoidance test in Parkinson's disease model. The following applies: FIG. 10. In kind it is in vivo. On the procedure: As a test device, a shuttle box having a size of 50×15×40 cm in width×length×height and being provided with an electrically conductive grid was used. The box was separated into two rooms, each having a size of 25×15 cm, by a connecting guillotine door (10×10 cm). Each room was illuminated using a 20 W light bulb. Noise was 60 dB or less and the test was performed in a room with very low illumination.
A mouse was placed in one room (A) of the two rooms separated by the door and the door was opened while turning on a light at 1500 lux. By doing this, the mouse looked around the room and entered the other room (B) without illumination. At this time, the door was operated to be automatically closed. By measuring a time taken from the opening of the door while turning on the light, to the closing of the door, a latency time was determined. The mouse may pass from room A to room B if the above process is repeated. If the mouse crossed from room A into room B within 20 seconds by repeating the above described process, a training process was deemed to be completed. […]
The mouse may develop a memory of a relation between the dark room and the foot-shock. […] After 1 day, a time taken from placing the above mouse in room A just before the mouse crossed into room B when a light turned on, was measured. […]

Setting [10] is: 100 μg/kg i.p. everyday for 2 weeks.
Where [11] appears, read: 200 μg/kg i.p. everyday for 2 weeks.

On to `CCOC(=O)c1ccc(O)cc1` [ethylparaben], for which the daily proper intake in data set [1] was 10 mg/kg.

As to `COC(=O)c1ccc(O)cc1` [methylparaben], the “apoptosis caused by α-synuclein” value in the data set with SH-SY5Y cells [2] (10 ng/ml) and in the data set with SH-SY5Y cells [2] (100 ng/ml) was “significantly suppressed” each time. Also, the “cell protective effect compared with positive control groups” value with SH-SY5Y cells [2] (10 and 100 ng/ml, α-synuclein) was “substantially similar to 50 μM VitE or 10 μM MK-801”; with SH-SY5Y cells [4] (10 and 100 ng/ml, glutamate), “substantially similar to 50 μM VitE or 10 μM MK-801”; in the data set with SH-SY5Y cells [7] (10 and 100 ng/ml, H2O2), “substantially similar to 50 μM VitE or 10 μM MK-801”. For the same molecule, the “rotary movement dysfunction (number of revolutions after apomorphine)” value in [3] (setting [10]) and in data set [3] (setting [11]) was “significantly improving” in each case. Besides, the “apoptosis caused by excitatory brain neurotransmitter” value in the data set with SH-SY5Y cells [4] (10 ng/ml) and in the data set on SH-SY5Y cells [4] (100 ng/ml) was “significantly suppressed” each time. Moreover, the daily proper intake in data set [1] was 10 mg/kg. Besides, in data set [5] (adding methylparaben, Fenton reaction, pH 7.4, FIG. 2), the “amount of active oxygen (ESR, DMPO-OH)” value was “reduced an amount of active oxygen”. Moreover, the “active oxygen inhibitory ability compared with VitC” value in [5] (methylparaben 100 μg/ml) was “substantially similar to that of VitC”. Further, the “active oxygen inhibitory ability” value in [5] (methylparaben added, in relation to concentration, FIG. 3, n=4) is “active oxygen inhibitory ability was increased”. The “memory (spontaneous alternation, Y-shaped maze)” value in data set [6] (setting [10]) and in [6] (setting [11]) was “significantly improving” in each case. Also, the “apoptosis caused by active oxygen” value in the data set on SH-SY5Y cells [7] (10 ng/ml) and in the data set with SH-SY5Y cells [7] (100 ng/ml) was “significantly suppressed” in each case. Also, the “movement ability (riding time on rotarod)” value in [8] (setting [10]) and in data set [8] (setting [11]) was “significantly improving” each time. Besides, the “memory (latency time, passive avoidance)” value in [9] (setting [10]) and in data set [9] (setting [11]) was “significantly improving” in each case.
